GI50 and TGI data for 21 compounds are collected here from PubChem BioAssay (NCI).

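Growth conditions: 96-well plates. Treatment: test compound, 48 hours, 5 concentrations. Analysis: linear interpolation between bracketing concentrations; unreached endpoints set to highest concentration. GI50 is the concentration that inhibits growth by half. Definition used: TGI = concentration required for complete inhibition of growth.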

Holding throughout (test): DTP human tumour cell line panel, 48 h
For assay [1], the system named is A498 renal.
Assay [2] deals with CAKI-1 renal.
Assay [3] concerns HOP-92 NSCLC.
The test system of assay [4] is K-562 leukemia.
Assay [5] relates to OVCAR-5 ovarian.
For assay [6], the system named is RPMI-8226 leukemia.
The subject of assay [7] is SF-295 CNS.
Assay [8] relates to SF-539 CNS.
For assay [9], the system named is SR leukemia.
Assay [10] has as its system IGROV1 ovarian.

As to `NC(=O)c1nc(-c2c(F)cccc2Cl)oc1Nc1ccc(C(=O)N2CCOCC2)cc1`, the GI50 (as a rule, the concentration at which growth is held to half of that of the control) was 0.544 µM in assay [1]; 1.44 µM in assay [2]; 0.262 µM in assay [3]; 4.66 µM in [4]; 2.31 µM in assay [5]; 7.44 µM in assay [6]. Besides, the values for the GI50 in assay [7], in assay [8] and in [9] were 1.61 µM, 1.32 µM and 1 µM, respectively. Besides, the total growth inhibition concentration (TGI) – broadly, the concentration at which net growth stops – in [1] was 3.28 µM; in assay [2] it was over 100 µM; in assay [3], 2.11 µM; in assay [4], over 100 µM; in assay [5], over 100 µM; in [6] it was 50.7 µM. For the same compound, the values for the total growth inhibition concentration (TGI) in assay [7], in assay [8] and in [9] were over 100 µM, 5.16 µM and 84.7 µM, respectively.
In the case of `S=C(Sc1ccc(Cl)cc1)Sc1ccc(Cl)cc1`, the GI50 in assay [1] is 2.91 µM; in assay [2], 2.96 µM; in assay [3], 1.99 µM; in [10] it was 1.81 µM; in assay [4], 1.87 µM; in assay [5], 2.32 µM. In addition, the GI50 in [6] was 1.09 µM; in assay [7], 1.01 µM; in assay [8], 1.74 µM; in assay [9], 0.362 µM. Besides, the TGI in [1] came out at 7.9 µM; in assay [2] it was 10.3 µM; in assay [3], 5.01 µM; in [10] it was 3.47 µM; in [4], 7.63 µM; in assay [5], 4.81 µM. Moreover, the total growth inhibition concentration (TGI) in assay [6] amounted to 3 µM; in assay [7] it was 6.58 µM; in [8], 3.84 µM; in assay [9], 2.03 µM.
Turning to `CCOC(=O)c1cc(C(=O)c2ccc(OC)c(OC)c2)n2c1ccc1ccc3cccnc3c12`, the GI50 in assay [1] is 2.82 µM; in assay [3], 6.78 µM; in assay [10], 2.33 µM; in [5], 5.32 µM; in [9], 0.807 µM. Besides, the TGI in [1], in assay [3], in [10], in assay [5] and in [9] was over 100 µM in each case.
On to `C[C@]12CCc3nc(Nc4ccc(O)cc4)sc3C1=CC[C@@H]1[C@@H]2CC[C@]2(C)/C(=N/NC(N)=S)CC[C@@H]12`, for which the GI50 was 2.09 µM in assay [1]; 1.59 µM in assay [2]; 1.71 µM in assay [3]; 1.45 µM in [10]; 1.98 µM in assay [5]; 1.49 µM in assay [6]. In addition, the figures for the GI50 in [7], in assay [8] and in assay [9] were 1.57 µM, 1.49 µM and 0.454 µM, respectively. Moreover, the TGI was determined as 4.9 µM in assay [1]; 3.4 µM in [2]; 4.2 µM in assay [3]; 3 µM in assay [10]; 4.8 µM in [5]; 5.8 µM in assay [6]. Besides, the TGI was 3.48 µM in assay [7], 3.09 µM in [8] and over 100 µM in assay [9].
In the case of `CO[C@H]1C(=O)[C@]2(C)[C@@H](OC)C[C@H]3OC[C@@]3(OC(C)=O)[C@H]2[C@H](OC(=O)c2ccccc2)[C@]2(O)C[C@H](OC(=O)[C@H](O)[C@@H](NC(=O)OC(C)(C)C)c3ccccc3)C(C)=C1C2(C)C`, the 50% growth inhibitory concentration (GI50) in assay [1], in assay [10], in assay [4], in assay [5], in assay [6] and in [7] was under 0.01 µM in each case. Further, in [9], the GI50 was under 0.01 µM. Moreover, the TGI was 10.1 µM in assay [1]; over 52.9 µM in [2]; 33 µM in assay [3]; over 100 µM in assay [10]; over 100 µM in [4]; 41.5 µM in assay [5]. Besides, the TGI in assay [6] is over 38 µM; in assay [7], 23.9 µM.
Take `CCOC1c2nc3ccccc3nc2-c2ccccc2N1C(C)=O` (centres undefined): the concentration for total growth inhibition (TGI) in assay [1], in assay [2], in assay [3], in assay [10], in assay [4] and in [6] was over 100 µM each time. The TGI in assay [7], in assay [8] and in assay [9] was over 100 µM in each case.
For the compound `O=C(O)c1ccccc1C(=O)c1ccco1`, the TGI in assay [1], in [2], in assay [3], in assay [10], in assay [4] and in assay [5] was over 100 µM throughout. For the same compound, the concentration for total growth inhibition (TGI) in assay [7], in assay [8] and in assay [9] was over 100 µM each time.
Regarding `CCN(CC)CCCC(Nc1c2ccc(Cl)cc2nc2ccc(OC)cc12)c1ccc(Cl)cc1` (centres undefined), the GI50 is 1.26 µM in assay [1]; 1.17 µM in assay [2]; 1.15 µM in assay [3]; 0.221 µM in [4]; 1.74 µM in [5]; 0.449 µM in assay [6]. For the same compound, the GI50 in [7] is 1.3 µM; in [8], 1.56 µM; in assay [9], 0.217 µM. For the same compound, the TGI in assay [1] is 2.64 µM; in assay [2], 2.44 µM; in assay [3], 2.81 µM; in [4], 0.432 µM; in assay [5], 3.36 µM; in assay [6], 1.8 µM. The total growth inhibition concentration (TGI) stood at 2.77 µM in [7], 3.1 µM in [8] and 0.512 µM in [9].
Turning to `CC(C)(C)O/N=C/c1cc(NC(=S)c2ccccc2)ccc1Cl`, the total growth inhibition concentration (TGI) in assay [1] was 27.6 µM; in assay [2] it was 72.4 µM; in assay [3] it was 34.4 µM; in [10], 27.1 µM; in assay [5], 69.7 µM; in [6] it was 41 µM. In addition, the TGI in assay [7] was 51.3 µM; in assay [8] it was 71.4 µM; in [9], 47.2 µM.
With `C[n+]1cn(CC(=O)c2ccccc2)c(C(N)=O)c1N`, the TGI in assay [1], in assay [2], in assay [3], in assay [10], in assay [5] and in [6] was over 100 µM in each case. Also, the TGI in [7], in [8] and in assay [9] was over 100 µM each time.
For the compound `Cc1nc2ccncc2[nH]1`, the TGI in assay [1], in assay [2], in assay [10], in [4], in assay [5] and in assay [7] was over 100 µM in each case. Further, the total growth inhibition concentration (TGI) in assay [8] and in assay [9] was over 100 µM in each case.
Turning to `CC(C)(C)C1=NO[C@H]2[C@@H](NC(=O)c3ccccc3)CC[C@@H]12`, the concentration for total growth inhibition (TGI) in assay [2], in [3], in assay [10], in assay [4], in assay [5] and in assay [6] was over 100 µM throughout. The TGI in [7], in assay [8] and in [9] was over 100 µM throughout.
Consider `N#Cc1ccccc1Sc1ccccc1N`, for which the TGI in assay [1], in [2], in assay [3], in assay [10], in [4] and in assay [5] was over 100 µM in each case. The TGI in assay [7], in assay [8] and in assay [9] was over 100 µM in each case.
For the compound `COc1ccc(-c2cnc(-c3ccncc3-c3cccc(OC)c3)o2)cc1`, the GI50 in assay [2] is 0.866 µM; in assay [3], 0.403 µM; in assay [10], 0.0754 µM; in assay [4], 0.0288 µM; in [5], 0.0809 µM; in assay [6] it was 0.0387 µM. Moreover, the 50% growth inhibitory concentration (GI50) is 0.0294 µM in [7], 0.0268 µM in assay [8] and under 0.0152 µM in [9]. In addition, the total growth inhibition concentration (TGI) in [2] was found to be 33 µM; in assay [3], 20.2 µM; in assay [10] it was 18.4 µM; in assay [4], 12.8 µM; in [5], 23.5 µM; in [6], 5.75 µM. Further, the TGI came out at 13.8 µM in assay [7], 0.0776 µM in assay [8] and 13.5 µM in assay [9].
Turning to `OCC1OC(OC2(CO)OC(CO)C(O)C2O)C(O)C(O)C1O` (centres undefined), the GI50 in assay [2], in assay [3], in [10], in assay [4], in assay [5] and in [6] was over 100 µM in each case. The GI50 in [7], in assay [8] and in [9] was over 100 µM throughout. Further, the total growth inhibition concentration (TGI) in [2], in assay [3], in [10], in assay [4], in assay [5] and in assay [6] was over 100 µM in each case. Moreover, the TGI in [7], in assay [8] and in assay [9] was over 100 µM each time.
As to `C=C1C(=O)O[C@@H]2C[C@@]3(C)[C@H](O)CCC(=C)[C@@H]3C[C@H]12`, the TGI was 19.6 µM in assay [2]; 18.2 µM in assay [3]; 45.2 µM in assay [10]; 10.2 µM in assay [4]; 20.5 µM in assay [5]; 13.4 µM in assay [6]. The TGI stood at 27.2 µM in assay [7], 23.6 µM in [8] and 14 µM in assay [9].
For the compound `Cc1nc2sccn2c1C(=O)NNC(N)=S`, the total growth inhibition concentration (TGI) in [2], in assay [3], in assay [10], in assay [4], in assay [5] and in [6] was over 100 µM throughout. Moreover, the TGI in [7], in assay [8] and in assay [9] was over 100 µM throughout.
As to `O=C(Nc1nc2ccc(S(=O)(=O)Nc3ccc(C4(C(F)(F)F)CC4)cc3)cc2[nH]1)c1cnccn1`, the GI50 in assay [1] was 2.26 µM; in assay [2], 4.19 µM; in assay [3], 1.04 µM; in [10], 1.9 µM; in [5], 5.52 µM; in assay [6] it was 1.16 µM. The GI50 in assay [7] was 0.506 µM; in assay [8], 2.35 µM; in assay [9], 0.359 µM. For the same compound, the TGI amounted to 8.17 µM in assay [1]; 16.2 µM in assay [2]; 2.4 µM in [3]; 18.5 µM in assay [10]; 19.5 µM in [5]; 5.39 µM in assay [6]. Besides, the TGI turned out to be 10.3 µM in [7], 10.4 µM in assay [8] and 2.96 µM in [9].
On to `CCOC(=O)C1=C(C)N(NC(N)=O)C2(N)N(NC(N)=O)C(C)=C(C(=O)OCC)C12C#N` (centres undefined), for which the TGI in [1], in assay [2], in assay [10], in [4], in assay [5] and in [6] was over 100 µM throughout. Also, the total growth inhibition concentration (TGI) in assay [7], in [8] and in assay [9] was over 100 µM in each case.
As for `O=c1[nH]c2ccccc2cc1-c1nnc(Cc2ccccc2)o1`, the GI50 in assay [1] is 13.3 µM; in assay [2], 3.65 µM; in [3] it was 3.34 µM; in assay [10], 5.2 µM; in [4], 3.29 µM; in assay [6], 1.94 µM. Also, the GI50 in assay [7] was 11.2 µM; in [9] it was 2.03 µM. Moreover, the TGI in [1] was found to be 27.1 µM; in [2], 14.4 µM; in assay [3] it was 15.3 µM; in assay [10], 27.1 µM; in assay [4], 14.4 µM; in assay [6] it was 6.67 µM. In addition, the concentration for total growth inhibition (TGI) in assay [7] stood at 32.2 µM; in assay [9] it was 10.9 µM.
As for `CN(C)C1C(=O)C(C(N)=O)=C(O)C2(O)C(=O)C3=C(O)c4c(O)cccc4C(C)(O)C3CC12.[Cl][Sb]([Cl])[Cl]` (centres undefined), the GI50 in assay [1] is 2.96 µM; in assay [2], 1.83 µM; in assay [3], 2.56 µM; in assay [10], 2.96 µM; in [4], 3.26 µM; in [5] it was 7.29 µM. For the same compound, the GI50 in assay [6] is 2.41 µM; in assay [9], 2.88 µM. The total growth inhibition concentration (TGI) was 11.4 µM in assay [1]; 4.22 µM in assay [2]; 7.61 µM in assay [3]; 8.5 µM in assay [10]; 11.2 µM in assay [4]; 26.1 µM in assay [5]. Moreover, the TGI in [6] stood at 5.85 µM; in [9], 7.36 µM.
